Earlier results on three substances are cited in patent US6348583B1, “Poly(ether-thioether), poly(ether-sulfoxide) and poly(ether-sulfone) nucleic acids” (Bio-Rad Laboratories, Inc., priority 1999, dated 2002).

Read-outs that look alike come from different tables or passages of the source.

The conditions of data set [1]: aqueous buffers.
For the next data set, the system named is dA10. To be noted: duplex with dA10.

With “d(ApG)8: methylphosphonate oligonucleotide analog, SEQ ID NO:22 (DNA GAGAGAGAGAGAGAGA; methylphosphonate backbone, further chemistry not given here)”, the solubility result in data set [1] was “less than 0.1 mM”.

Take “d(CpT)8: methylphosphonate oligonucleotide analog, SEQ ID NO:21 (DNA CTCTCTCTCTCTCTCT; methylphosphonate backbone, further chemistry not given here)”: in data set [1] (result in words), the solubility entry is listed as “soluble up to millimolar concentrations”.

Turning to “dT10: native DNA dT10, duplex with dA10 (SEQ ID NO:18) (TTTTTTTTTT)”, in the data set on dA10, the Tm value entry is “about 24 °C”.
